According to US9102701B2, “17-hydroxy-17-pentafluoroethyl-estra-4,9(10)-diene-11-ethynylphenyl derivatives, methods for the production thereof and use thereof for treating diseases” (Bayer Intellectual Property GmbH, priority 2009, dated 2015):
Like-named read-outs stand apart in the source and are kept apart here.

Experiments:
[1] = biological target: T1, human progesterone receptor A (Homo sapiens, UniProt P06401); experiment: Progesterone receptor-antagonistic action in stably transfected SK-N-MC cells, PR-A, MMTV-LUC reporter; type: cell-based; settings: read-out: IC50 PR-A
T1 construct: expressed in transfected cells; host or cells: SK-N-MC human neuroblastoma cells, stably transfected with pRChPR-A-neo and pMMTV-LUC
T1 sequence (P06401 1-769 isoform P06401-2): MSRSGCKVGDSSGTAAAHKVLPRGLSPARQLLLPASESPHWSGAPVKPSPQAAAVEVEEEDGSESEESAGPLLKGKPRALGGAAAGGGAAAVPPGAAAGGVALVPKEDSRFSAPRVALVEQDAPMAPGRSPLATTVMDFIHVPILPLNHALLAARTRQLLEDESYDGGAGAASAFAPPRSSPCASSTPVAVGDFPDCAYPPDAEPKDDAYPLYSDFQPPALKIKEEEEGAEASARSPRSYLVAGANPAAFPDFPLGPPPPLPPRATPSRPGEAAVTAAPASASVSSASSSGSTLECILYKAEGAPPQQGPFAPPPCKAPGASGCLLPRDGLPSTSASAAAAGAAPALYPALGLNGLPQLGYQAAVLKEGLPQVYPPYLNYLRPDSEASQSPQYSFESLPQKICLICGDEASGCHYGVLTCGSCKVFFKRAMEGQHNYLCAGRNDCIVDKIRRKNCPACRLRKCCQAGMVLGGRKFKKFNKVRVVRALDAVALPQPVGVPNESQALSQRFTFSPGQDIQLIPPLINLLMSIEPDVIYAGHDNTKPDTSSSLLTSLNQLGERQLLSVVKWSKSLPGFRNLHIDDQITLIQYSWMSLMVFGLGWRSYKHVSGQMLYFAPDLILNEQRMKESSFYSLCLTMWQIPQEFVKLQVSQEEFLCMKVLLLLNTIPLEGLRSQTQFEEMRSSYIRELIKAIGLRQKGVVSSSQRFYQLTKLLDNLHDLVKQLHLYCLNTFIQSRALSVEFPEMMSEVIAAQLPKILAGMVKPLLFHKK
Procedure: (§1) Determination of Progesterone Receptor-Antagonistic Action in Stable Transfectants of Human Neuroblastoma Cells (SK-N-MC Cells) with the Human Progesterone a or Progesterone B Receptor and an MN-LUC Reporter Construct
(§2) SK-N-MC cells (human neuroblastoma cells) which have been stably transfected with plasmids expressing the human progesterone receptor B (pRChPR-B-neo) or the human progesterone receptor A (pRChPR-A-neo) and a reporter construct (pMMTV-LUC) were incubated for 24 hours either in the absence (negative control) or in the presence of ascending amounts of the particular test compound (0.01 nmol/l, 0.1 nmol/l, 1 nmol/l, 10 nmol/l, 100 nmol/l and […]), in order to determine the agonistic efficacy. As a positive control of the reporter gene induction, the cells were treated with the synthetic gestagen promegestone (0.01 nmol/l, 0.1 nmol/l, 1 nmol/l, 10 nmol/l, 100 nmol/l and […]). To determine the antagonistic activity, the cells were treated with 0.1 nmol/l promegestone and additionally with ascending amounts of the particular test compound (0.01 nmol/l, 0.1 nmol/l, 1 nmol/l, 10 nmol/l, 100 nmol/l and […]). The activity of the reporter gene LUC (LUC=luciferase) was determined in the cell lysates and measured as RLU (relative light units). All measurements are reported as % efficacy and as EC50 and IC50 concentrations.

[2] = biological target: T2, human progesterone receptor B (Homo sapiens, UniProt P06401); experiment: Progesterone receptor-antagonistic action in stably transfected SK-N-MC cells, PR-B, MMTV-LUC reporter; type: cell-based; settings: read-out: IC50 PR-B
T2 construct: expressed in transfected cells; host or cells: SK-N-MC human neuroblastoma cells, stably transfected with pRChPR-B-neo and pMMTV-LUC
T2 sequence (P06401 1-933): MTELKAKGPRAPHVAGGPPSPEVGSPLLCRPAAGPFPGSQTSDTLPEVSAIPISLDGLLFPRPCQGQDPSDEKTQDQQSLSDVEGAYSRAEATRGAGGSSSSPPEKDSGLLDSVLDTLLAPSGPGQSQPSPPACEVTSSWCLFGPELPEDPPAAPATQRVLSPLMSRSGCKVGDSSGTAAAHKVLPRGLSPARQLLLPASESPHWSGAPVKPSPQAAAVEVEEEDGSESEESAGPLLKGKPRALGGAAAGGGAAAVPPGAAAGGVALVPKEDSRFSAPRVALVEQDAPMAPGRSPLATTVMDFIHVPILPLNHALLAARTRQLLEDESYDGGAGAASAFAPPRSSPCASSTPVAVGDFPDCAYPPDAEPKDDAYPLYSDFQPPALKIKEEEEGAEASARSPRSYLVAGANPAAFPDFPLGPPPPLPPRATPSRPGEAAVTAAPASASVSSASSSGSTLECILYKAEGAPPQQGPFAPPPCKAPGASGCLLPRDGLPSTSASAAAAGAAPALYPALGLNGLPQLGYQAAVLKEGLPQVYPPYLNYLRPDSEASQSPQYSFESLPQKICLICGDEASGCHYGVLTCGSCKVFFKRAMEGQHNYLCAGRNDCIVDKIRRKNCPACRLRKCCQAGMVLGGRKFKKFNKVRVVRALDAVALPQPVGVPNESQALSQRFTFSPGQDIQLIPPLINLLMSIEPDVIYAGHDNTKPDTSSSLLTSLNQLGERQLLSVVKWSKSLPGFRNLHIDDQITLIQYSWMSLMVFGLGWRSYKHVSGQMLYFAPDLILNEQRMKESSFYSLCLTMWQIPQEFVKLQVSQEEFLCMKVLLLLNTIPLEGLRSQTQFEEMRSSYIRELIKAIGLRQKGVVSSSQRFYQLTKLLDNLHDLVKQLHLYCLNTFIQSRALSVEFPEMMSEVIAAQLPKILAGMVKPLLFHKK
Procedure: as §1, §2

Question: Which IC50 [1] does the source give for `Cc1ccc(NC(=O)NCC#Cc2ccc([C@H]3C[C@@]4(C)[C@@H](CC[C@@]4(O)C(F)(F)C(F)(F)F)[C@@H]4CCC5=CC(=O)CCC5=C43)cc2)cc1` [Example 38, 1-{3-[4-((8S,11R,13S,14S,17S)-17-hydroxy-13-methyl-3-oxo-17-pentafluoroethyl-2,3,6,7,8,11,12,13,14,15,16,17-dodecahydro-1H-cyclopenta[a]phenanthren-11-yl)phenyl]prop-2-ynyl}-3-(4-methylphenyl)urea] here?
Answer: 0.2 nM

Question: And the IC50 [2]?
Answer: 0.3 nM

Question: Which results are given for `Cc1ccc(NC(=O)OCC#Cc2ccc([C@H]3C[C@@]4(C)C(CC[C@@]4(O)C(F)(F)C(F)(F)F)C4CCC5=CC(=O)CCC5=C43)cc2)cc1` (stereo partly drawn) [Example 47, 4-methylphenylcarbamic acid 3-[4-((8S,11R,13S,14S,17S)-17-hydroxy-13-methyl-3-oxo-17-pentafluoroethyl-2,3,6,7,8,11,12,13,14,15,16,17-dodecahydro-1H-cyclopenta[a]phenanthren-1′-yl)phenyl]prop-2-ynyl ester]?
Answer: IC50 [1]: 0.01 nM; IC50 [2]: 0.01 nM

Question: How did the IC50 [1] turn out when `COC(=O)c1cccc(C=CC#Cc2ccc([C@H]3C[C@@]4(C)C(CC[C@@]4(O)C(F)(F)C(F)(F)F)C4CCC5=CC(=O)CCC5=C43)cc2)c1` (mixture of isomers) [Example 12, 3-{(E/Z)-4-[4-((8S,11R,13S,14S,17S)-17-hydroxy-13-methyl-3-oxo-17-pentafluoroethyl-2,3,6,7,8,11,12,13,14,15,16,17-dodecahydro-1H-cyclopenta[a]phenanthren-1′-yl)phenyl]but-1-en-3-ynyl}benzoic acid methyl ester] was run?
Answer: 1 nM

Question: And the IC50 [2]?
Answer: 2 nM

Question: With `COc1ccc(NC(=O)NCC#Cc2ccc([C@H]3C[C@@]4(C)[C@@H](CC[C@@]4(O)C(F)(F)C(F)(F)F)[C@@H]4CCC5=CC(=O)CCC5=C43)cc2)cc1` [Example 32, 1-{3-[4-((8S,11R,13S,14S,17S)-17-hydroxy-13-methyl-3-oxo-17-pentafluoroethyl-2,3,6,7,8,11,12,13,14,15,16,17-dodecahydro-1H-cyclopenta[a]phenanthren-11-yl)phenyl]prop-2-ynyl}-3-(4-methoxyphenyl)urea] as the compound, how does the IC50 [1] read?
Answer: 0.2 nM

Question: And the IC50 [2]?
Answer: 0.1 nM

Question: What does the source list for `CC(C)CO/N=C/C#Cc1ccc([C@H]2C[C@@]3(C)C(CC[C@@]3(O)C(F)(F)C(F)(F)F)C3CCC4=CC(=O)CCC4=C32)cc1` (mixture of isomers) [Example 26, (E/Z)-[4-((8S,11R,13S,14S,17S)-17-hydroxy-13-methyl-3-oxo-17-pentafluoroethyl-2,3,6,7,8,11,12,13,14,15,16,17-dodecahydro-1H-cyclopenta[a]phenanthren-1′-yl)phenyl]propynal O-isobutyl oxime]?
Answer: IC50 [1]: 0.08 nM; IC50 [2]: 0.08 nM

Question: `CC(C)NC(=O)OCC#Cc1ccc([C@H]2C[C@@]3(C)C(CC[C@@]3(O)C(F)(F)C(F)(F)F)C3CCC4=CC(=O)CCC4=C32)cc1` (stereo partly drawn) [Example 49, isopropylcarbamic acid 3-[4-((8S,11R,13S,14S,17S)-17-hydroxy-13-methyl-3-oxo-17-pentafluoroethyl-2,3,6,7,8,11,12,13,14,15,16,17-dodecahydro-1H-cyclopenta[a]phenanthren-1′-yl)phenyl]prop-2-ynyl ester] was tested. Which IC50 [1] did it give?
Answer: 0.01 nM

Question: What about the IC50 [2] of the same compound?
Answer: 0.07 nM

Question: Which results are given for `COc1ccc(NC(=O)OCC#Cc2ccc([C@H]3C[C@@]4(C)C(CC[C@@]4(O)C(F)(F)C(F)(F)F)C4CCC5=CC(=O)CCC5=C43)cc2)cc1` (stereo partly drawn) [Example 52, 4-methoxyphenylcarbamic acid 3-[4-((8S,11R,13S,14S,17S)-17-hydroxy-13-methyl-3-oxo-17-pentafluoroethyl-2,3,6,7,8,11,12,13,14,15,16,17-dodecahydro-1H-cyclopenta[a]phenanthren-1′-yl)phenyl]prop-2-ynyl ester]?
Answer: IC50 [1]: 0.01 nM; IC50 [2]: 0.07 nM

Question: Which IC50 [1] does the source give for `Cc1noc(C)c1NC(=O)NCC#Cc1ccc([C@H]2C[C@@]3(C)C(CC[C@@]3(O)C(F)(F)C(F)(F)F)C3CCC4=CC(=O)CCC4=C32)cc1` (stereo partly drawn) [Example 28, 1-(3,5-dimethylisoxazol-4-yl)-3-{3-[4-((8S,11R,13S,14S,17S)-17-hydroxy-13-methyl-3-oxo-17-pentafluoroethyl-2,3,6,7,8,11,12,13,14,15,16,17-dodecahydro-1H-cyclopenta[a]phenanthren-1′-yl)phenyl]prop-2-ynyl}urea] here?
Answer: 0.04 nM

Question: What about the IC50 [2] of the same compound?
Answer: 0.08 nM

Question: Which IC50 ([1]; antagonistic potency vs 0.1 nmol/l promegestone, SK-N-MC cells, 24 hours) does the source give for `C[C@]12C[C@H](c3ccc(C#Cc4ccc(S(C)(=O)=O)cc4)cc3)C3=C4CCC(=O)C=C4CC[C@H]3[C@@H]1CC[C@@]2(O)C(F)(F)C(F)(F)F` [Example 56, (8S,11R,13S,14S,17S)-17-hydroxy-11-[4-(4-methanesulphonylphenylethynyl)phenyl]-13-methyl-17-pentafluoroethyl-1,2,6,7,8,11,12,13,14,15,16,17-dodecahydrocyclopenta[a]phenanthren-3-one] here?
Answer: 0.01 nM

Question: And the IC50 [2]?
Answer: 0.08 nM

Question: What does the source list for `CCOC(=O)/C=C/C#Cc1ccc([C@H]2C[C@@]3(C)C(CC[C@@]3(O)C(F)(F)C(F)(F)F)C3CCC4=CC(=O)CCC4=C32)cc1` (stereo partly drawn) [Example 6, (E)-5-[4-((8S,11R,13S,14S,17S)-17-hydroxy-13-methyl-3-oxo-17-pentafluoroethyl-2,3,6,7,8,11,12,13,14,15,16,17-dodecahydro-1H-cyclopenta[a]phenanthren-1′-yl)phenyl]pent-2-en-4-ynoic acid ethyl ester]?
Answer: IC50 [1]: 13 nM; IC50 [2]: 12 nM

Question: Which IC50 [1] does the source give for `C[C@]12C[C@H](c3ccc(C#C/C=N\OCc4ccccc4)cc3)C3=C4CCC(=O)C=C4CCC3C1CC[C@@]2(O)C(F)(F)C(F)(F)F` (stereo partly drawn) [Example 24B, (Z)-[4-((8S,11R,13S,14S,17S)-17-hydroxy-13-methyl-3-oxo-17-pentafluoroethyl-2,3,6,7,8,11,12,13,14,15,16,17-dodecahydro-1H-cyclopenta[a]phenanthren-1′-yl)phenyl]propynal O-benzyl oxime] here?
Answer: 0.1 nM

Question: What about the IC50 [2] of the same compound?
Answer: 0.1 nM

Question: What does the source list for `C[C@]12C[C@H](c3ccc(C#CCNC(=O)Nc4ccc(N5CCCCC5)cc4)cc3)C3=C4CCC(=O)C=C4CC[C@H]3[C@@H]1CC[C@@]2(O)C(F)(F)C(F)(F)F` [Example 43, 1-{3-[4-((8S,11R,13S,14S,17S)-17-hydroxy-13-methyl-3-oxo-17-pentafluoroethyl-2,3,6,7,8,11,12,13,14,15,16,17-dodecahydro-1H-cyclopenta[a]phenanthren-11-yl)phenyl]prop-2-ynyl}-3-(4-piperidin-1-ylphenyl)urea]?
Answer: IC50 [1]: 0.8 nM; IC50 [2]: 0.9 nM
